# Experiments:
# [1] = system: A549 lung adenocarcinoma cells; assay: A549 cell proliferation / growth inhibition; assay type: cell-based, human; settings: for Selected from primary screen for growth inhibition of A549 cells at 50 μM: 50 μM compound, 1 mM glucose; for Selected for having an IC50 ratio (10 mM glucose: 1 mM glucose) of A549 growth higher than WBC-A: IC50 on 10 mM vs 1 mM glucose, compared with WBC-A
# Experimental: The analog library (n=203) was screened for inhibition of growth of A549 cells on RPMI medium supplemented with 1 mM glucose. DMSO (green bar) and WBC-A (orange bar) served as negative and positive control, respectively. In addition, the reference glucose transport inhibitors STF-31, Fasentin, BAY-876, WZB-117 and Cytochalasin B were included and indicated in red. Compounds were added at 50 μM concentration. Number of cells was determined by counting nuclei stained by Hoechst after three days of growth.
# For both adherent A549 and MCF10Δ H-RAS^V12 cell lines, growth curves were established using the IncuCyte® ZOOM technology. By collecting phase contrast images, the IncuCyte® software provides a calculated confluency percentage from which growth curves can be deducted.
# Cells were seeded at a density of 1000-1500 cells/well in a Nunc-Edge™ 96-well plate (Thermo Fisher Scientific) and growth was typically measured over 3 to 5 days. For the measurement of apoptosis induction using the MCF10Δ H-RAS^V12 cell line, the IncuCyte® Caspase-3/7 green dye was added to the medium in the recommended concentration at the beginning of the growth curve experiment. Apoptosis was detected by taking fluorescent images by excitation at 488 nm followed by IncuCyte® software analysis. Cell growth of the KMS-12-PE multiple myeloma cell line, which grows in suspension, was measured by manual cell counting. Cells were initially seeded at a density of 10^4 cells/well and incubated for 4 days after which the cell number was counted. For all cell lines, the same medium used for pregrowth was also used for the growth curve experiment, albeit with different glucose concentrations depending on the experimental design. With compound administration, the final concentration of DMSO never exceeded 0.1%. Typically, at least four technical repeats were included per condition.
# [2] = system: tps1Δ cells; assay: Growth rescue of tps1Δ strain on glucose (growth curves, 2% galactose medium); assay type: cell-based, S. cerevisiae; settings: 100 μM compound, 2.5 mM glucose
# Experimental: Growth curves were made by measuring OD595 in a 96-well plate using the Multiskan™ FC Microplate Photometer (Thermo Fisher Scientific). Typically, for tps1Δ rescue experiments (FIG. 2b-e; FIG. 4a), cells were (pre)grown in Complete Synthetic medium containing 2% galactose.
# Compounds were always added 10 min prior to glucose addition to ensure maximal interaction between the cells and compounds. Cells originating from the preculture were harvested, washed in medium without sugar, after which they were resuspended to an OD of 0.1 in 200 μL of the appropriate medium. At least three technical replicates were included per condition. OD595 was measured at 30° C. every 30 min with a 10-min shaking interval.
SMILES,Selected from primary screen for growth inhibition of A549 cells at 50 μM [1],Rescue of the tps1Δ strain on 2.5 mM glucose at 100 μM [2],Selected for having an IC50 ratio (10 mM glucose: 1 mM glucose) of A549 growth higher than WBC-A [1]
Cc1nc(SCC(=O)NCC(F)(F)F)c2c(-c3cccs3)csc2n1 [31B],No,No,
Cc1nc(N(C)Cc2nnc3n2CCCCC3)c2c(-c3ccccc3)csc2n1 [33A],No,No,
Cc1sc2[nH]c(CSc3nnc(-c4cccs4)n3Cc3ccccc3)nc(=N)c2c1C [11A],No,No,
Cc1nc(Sc2cccc(C(F)(F)F)c2)c2c(-c3cccs3)csc2n1 [25C],Yes,No,Lower IC50 ratio
Cc1nc(SCC(=O)Nc2ccccc2-c2ccccc2)c2c(-c3cccs3)csc2n1 [13B],Yes,No,"Higher IC50 ratio, but false-positive"
Cc1nc(N(C)CC(N)=O)c2c(-c3cccs3)csc2n1 [39B],No,No,
c1nc(SCCN2CCOCC2)c2c3c(sc2n1)CCCC3 [84C],No,No,
Cc1nc(SCC(=O)Nc2ccccc2C#N)c2c(-c3cccs3)csc2n1 [19B],No,No,
CC(=O)NCc1ccc(C(=O)CSc2nc(C)nc3scc(-c4cccs4)c23)o1 [29B],No,Yes,
Cc1ccc(-c2csc3ncnc(SCC(=O)N(C)Cc4ccc(C)o4)c23)cc1 [2B],Yes,No,Lower IC50 ratio
CCn1nnnc1Sc1ncnc2scc(-c3ccc(C)cc3)c12 [61A],Yes,No,Lower IC50 ratio
Cc1nc(SCCO)c2c(C)c(C)sc2n1 [57C],No,No,
Cc1nc(SCC(C#N)CCC#N)c2c(-c3cccs3)csc2n1 (stereo not drawn) [21C],No,No,
Cc1nc(SCCOc2ccc(F)cc2)c2c(-c3cccs3)csc2n1 [32C],No,No,
Nc1nc(CSc2nnc3n2CCCCC3)nc2sc3c(c12)CCCCC3 [35A],Yes,No,Lower IC50 ratio
Cn1nnnc1Sc1ncnc2scc(-c3ccc(Cl)cc3)c12 [48A],Yes,No,Lower IC50 ratio
Cc1ccc(-c2csc3ncnc(SCC(=O)N(C)Cc4ccco4)c23)cc1 [20B],Yes,No,Lower IC50 ratio
Cc1nnc(Sc2nc(CN3CCOCC3)nc3scc(-c4cccs4)c23)n1C [6C],Yes,No,Lower IC50 ratio
[O-][S+](CCSc1ncnc2scc(-c3ccc(F)cc3)c12)c1ccccc1 (stereo not drawn) [45C],Yes,No,Lower IC50 ratio
Cc1nc(SCCC(N)=O)c2c(-c3cccs3)csc2n1 [4B],No,No,
Cc1nc(NCC(=O)NCc2ccco2)c2c(-c3ccccc3)csc2n1 [4C],Yes,No,Higher IC50 ratio and confirmed
Cc1nc(SC(C)C(=O)NC(C)C)c2c(-c3cccs3)csc2n1 (stereo not drawn) [33B],Yes,No,Lower IC50 ratio

SMILES,Selected from primary screen for growth inhibition of A549 cells at 50 μM [1],Rescue of the tps1Δ strain on 2.5 mM glucose at 100 μM [2],Selected for having an IC50 ratio (10 mM glucose: 1 mM glucose) of A549 growth higher than WBC-A [1]
CCNc1nnc(Sc2nc(C)nc3scc(-c4cccs4)c23)s1 [46C],No,No,
Cc1nc(SCC(=O)NCC(=O)Nc2cccc(C)c2C)c2c(-c3cccs3)csc2n1 [41B],No,No,
Cc1nc(SCC(=O)N2CCOCC2)c2cc(-c3ccccc3)sc2n1 [28C],No,No,
CC(=O)N(c1nnc(Sc2nc(C)nc3scc(-c4cccs4)c23)s1)C1CC1 [39C],No,No,
Cc1nc(Sc2nnc(C)[nH]2)c2c(-c3ccccc3)csc2n1 [13A],No,No,
Cc1nc(N2CCN(CCO)CC2)c2c(-c3cccs3)csc2n1 [25B],No,No,
CSc1nc(C)nc2scc(-c3cccs3)c12 [45A],No,No,
Cc1nc(SCC(=O)N2CCC(C)Sc3ccccc32)c2c(-c3cccs3)csc2n1 (stereo not drawn) [43B],No,No,
COc1ccc(-c2csc3nc(C)nc(Sc4nnc(C)n4C)c23)cc1OC [5A],No,No,
Cc1nc(S)c2c(-c3cccs3)csc2n1 [67A],No,No,
OCCSc1ncnc2sc3c(c12)CCC3 [17C],No,No,
Cc1nc(SCC(=O)N2CC(C)OC(C)C2)c2c(C)c(C)sc2n1 (stereo not drawn) [7C],Yes,No,"Higher IC50 ratio, but false-positive"
Cc1nc(N(C)CC(=O)N2CCN(C)CC2)c2c(-c3cccs3)csc2n1 [10B],No,No,
Cc1nnc(SCC(=O)N2CCOCC2)c2c1cnn2-c1ccccc1 [70C],No,No,
Cc1nc(Sc2nnc(C3CC3)n2C2CC2)c2c(-c3cccs3)csc2n1 [58C],No,No,
CCOC(=O)CNC(=O)CSc1nnc(C)c2cnn(-c3ccccc3)c12 [73C],No,No,
COc1cccc(NC(=O)CSc2ncnc3sc(C)c(-c4ccccc4)c23)c1 [12B],Yes,No,Lower IC50 ratio
CCCN(CC1CC1)C(=O)CSc1nc(C)nc2scc(-c3cccs3)c12 [9B],No,No,
c1ccn2c(Sc3ncnc4sc5c(c34)CCC5)nnc2c1 [60A],No,No,
Cc1nc(NCCCN2CCC(O)CC2)c2c(-c3cccs3)csc2n1 [16B],No,No,
c1ccn2c(Sc3ncnc4sccc34)nnc2c1 [46A],No,No,

# Reference: patent US20240252508A1, “Novel glucose uptake inhibitors for use in the treatment of cancer” (NOVELYEAST BV, priority 2021, published 2024)
